In patent US8912146B2, “Derivatives of APF and methods of use” (University of Maryland, Baltimore, priority 2008, dated 2014):
Entries after “also recorded” stand apart in the source; their conditions may differ. Read-outs that look alike come from different tables or passages of the source.

Key:
[1] = test system: ZO-1, occludin, claudin 1, 4, 8, 12 mRNA in IC/PBS cells; assay: qRT-PCR of tight junction protein mRNA in IC/PBS cells; format: cell-based, human; details: 16 or 30 day treatment
Description: Total RNA was extracted from IC/PBS and normal control epithelial cell explants using the RNEasy Plus Mini Kit (Qiagen) according to the manufacturer's protocol. Quantitative real time RT-PCR for tight junction gene expression was performed using Quantitect Primers (Qiagen), SYBR Green RT-PCR kit reagents (Qiagen), and a Roche 480 Light-Cycler. Samples were tested in triplicate runs, and specific mRNA levels quantified and compared to mRNA levels for β-actin using LightCycler 480 real-time PCR analysis software (version 1.5).
For the permeability assay, the percentage of total counts in the basal medium was determined in four experiments (using different IC/PBS cell donors), and expressed as mean±standard deviation. Crossover point analysis was performed for qRT-PCR data, and expression of each gene was quantified relative to β-actin; this value was expressed as mean±standard error of the mean for duplicate runs performed on two separate occasions. ^3H-thymidine incorporation was determined in triplicate on two separate occasions, and the CPM expressed as mean±standard deviation.

IC/PBS cell monolayers = assay: Paracellular permeability (14C-mannitol and 3H-inulin flux, Transwell) of IC/PBS cell monolayers; format: cell-based, human; details: 16 or 30 days treatment
Description: Flux assays were performed using 12-mm Transwell culture plates (Corning Incorporated, Corning, N.Y.), as previously described (Keay et al., 2000). Cells were plated at 4×10^5 cells/cm^2 on the insert and grown in DMEM-F12 medium containing 10% heat-inactivated FBS, 1% antibiotic solution, 1% L-glutamine, 0.25 units/ml insulin (all from Sigma, St. Louis, Mo.), and 5 ng/ml hEGF (R & D Systems, Minneapolis, Minn.) to establish tight monolayers. On day 2, the medium was changed to MEM (GIBCO/Invitrogen) containing 1% antibiotic/antimycotic solution and 1% L-glutamine (Sigma).
Two different membrane impermeable molecules, [14C]-mannitol (molecular weight: 184 Daltons) and [^3H]-inulin (molecular weight: 5,200 Daltons), served as paracellular tracers. […] Flux assays were performed at 37° C.; basal medium was collected at 0.5-6 hrs after addition of [^14C]-mannitol or [3H]-inulin, and the amount of radioactivity determined using a Beckman LS 5000 scintillation counter. Results were expressed as percentage of total counts for each tracer.
For the permeability assay, the percentage of total counts in the basal medium was determined in four experiments (using different IC/PBS cell donors), and expressed as mean±standard deviation. […]

[2] = test system: primary normal human bladder epithelial cells; assay: 3H-thymidine incorporation (antiproliferative activity) in primary normal bladder epithelial cells; format: cell-based
Description: Cell Culture. Cystoscopy was performed under general anesthesia, and 4-mm^2 pieces of transitional epithelium with submucosal bladder tissue were obtained for the growth of primary bladder epithelial cells, as previously described (Keay et al., 1996; 2004). Primary normal bladder epithelial cells were propagated in DMEM-F12 (Media-Tech, Herndon Va.) with 10% heat-inactivated fetal bovine serum (FBS), 1% antibiotic/antimycotic solution, 1% L-glutamine, 0.25 units/mL insulin (all from Sigma, St. Louis, Mo.), and 5 ng/mL hEGF (R&D Systems, Minneapolis, Minn.) at 37° C. in a 5% CO2 atmosphere and characterized by binding of AE-1/AE-3 pancytokeratin antibodies (Signet, Dedham, Mass.).
^3H-Thymidine Incorporation. Cell proliferation was measured by ^3H-thymidine incorporation into explanted normal human bladder epithelial cells, plating 1.5×10^4 cells/well onto a 96 well cell culture plate (VWR 29442-054), in 150 ul/well MEM containing 10% heat inactivated FBS, 1% antibiotic/antimycotic solution, and 1% L-glutamine (all from Sigma), resulting in a doubling time of 48-72 hours, as previously described (Keay et al., 1996; 2004). Each purified lyophilized synthetic APF congener was resuspended in acetonitrile/distilled water (1:1), and applied to the cells in serum-free MEM (containing only L-glutamine and antibiotics/antimycotics); cell controls received acetonitrile/distilled water diluted in serum-free MEM alone. Cells were then incubated at 37° C. in a 5% CO2 atmosphere for 48 hours. The cell contents harvested and methanol-fixed onto glass fiber filter paper, and the amount of radioactivity incorporated determined. Significant inhibition of ^3H-thymidine incorporation was defined as a mean decrease in counts per minute of greater than 2 standard deviations from the mean of control cells for each plate. Inhibition of cell proliferation was determined from a semi-log plot of dose-response for each APF derivative; IC50 was determined as the concentration of each derivative that caused a mean 50% inhibition of thymidine incorporation as compared to the mean of untreated cell controls.
Statistical Analysis. The thymidine incorporation (APF biological activity) assay was performed in triplicate on at least two separate runs, with 1 run simultaneously in triplicate on the same plate. The significance of the difference between mean values for each congener vs. mean values for compound 1 was determined by an analysis of variance.

Structure (SMILES): CC(=O)NC1C(O[C@@H]2OC(CO)[C@H](O)C(O)C2O)[C@@H](O)C(CO)O[C@@H]1OC(C)[C@H](N)C(=O)NC(C(=O)N1CCCC1C(=O)NC(C)C(=O)N[C@@H](C)C(=O)NC(C(=O)N[C@H](C(=O)NC(C(=O)N[C@@H](C)C(=O)O)C(C)C)C(C)C)C(C)C)C(C)C (stereo in doubt) [Derivative 8, GalGalNAc-TV(D-proline)AAVVVA]
- tight junction protein (ZO-1, occludin, claudins) mRNA expression in IC/PBS cells ([1]; listed as D-proline): significantly (p<0.05) stimulate mRNA expression
- tight junction protein (ZO-1, occludin, claudins) mRNA expression in IC/PBS cells ([1]; listed as D-proline APF): stimulation of tight junction protein expression
- tight junction protein (ZO-1, occludin, claudins) mRNA expression in IC/PBS cells ([1]; listed as GalGalNAc-TV-(D-proline)-AAVVVA): significantly increased
- paracellular permeability of IC/PBS cells (14C-mannitol, 3H-inulin) (IC/PBS cell monolayers): significantly decrease permeability
- paracellular permeability of IC/PBS cells (14C-mannitol, 3H-inulin) (IC/PBS cell monolayers; listed as D-proline APF): normalized; also recorded: significantly decreased paracellular permeability
- antiproliferative activity compared with as-APF (1), in words [2]: completely abolished activity
- antiproliferative activity compared with as-APF (1), in words ([2]; listed as D-proline APF): Neither D-proline APF nor D-pipecolic acid APF had any intrinsic antiproliferative activity
- % of activity ([2]; relative to 1 (as-APF) run on the same plate, from IC50, inactive = no significant activity at <25 μM): inactive
